Assay results reported in patent US20140350029A1 (DAINIPPON SUMITOMO PHARMA CO., LTD., priority 2011, published 2014).

How the values were obtained:
[1] = system: patients with bipolar I depression; experiment: Lurasidone monotherapy for bipolar I depression, 6-week study, efficacy; type: in vivo, human; details: for MADRS effect size vs PBO / MADRS score reduction (change from baseline, MMRM) / reduction in CGI-BP-S depression scores (MMRM): week 6
Procedure: Changes from DB baseline (DB-BL) to week 6 in MADRS and CGI-bipolar severity (CGI-BP-S) depression scores, respectively, were analyzed using mixed model for repeated measures (MMRM). Additional secondary outcome measures, e.g., Sheehan Disability Scale (SDS), were analyzed using analysis of covariance, last observation carried forward (ANCOVA-LOCF), or logistic regression.

[2] = system: patients with schizophrenia; experiment: PANSS and BPRS scores, 1-year lurasidone therapy; type: in vivo, human; details: 40-120 mg/day, over a 1-year period
[3] = target: T1, Dopamine D4 receptor (Homo sapiens, UniProt P21917); experiment: In vitro receptor binding, dopamine D4; details: cloned cells expressing human receptors; read-out: Binding Affinities (Ki; nM) Dopamine D4
T1 sequence (P21917 1-419): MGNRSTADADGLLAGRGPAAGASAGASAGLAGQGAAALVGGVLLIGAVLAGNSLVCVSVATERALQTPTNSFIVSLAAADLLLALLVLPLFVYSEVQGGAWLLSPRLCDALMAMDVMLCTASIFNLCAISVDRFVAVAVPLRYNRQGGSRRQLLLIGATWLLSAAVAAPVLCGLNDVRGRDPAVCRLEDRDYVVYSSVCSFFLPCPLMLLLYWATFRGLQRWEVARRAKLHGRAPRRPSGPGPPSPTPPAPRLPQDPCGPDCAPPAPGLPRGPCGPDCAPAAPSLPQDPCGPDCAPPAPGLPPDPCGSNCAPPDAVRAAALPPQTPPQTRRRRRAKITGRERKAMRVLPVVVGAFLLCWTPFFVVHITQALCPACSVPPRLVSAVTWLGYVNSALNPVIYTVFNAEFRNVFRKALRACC
Procedure: Functional assays were carried out to analyze the binding affinity and effect on receptor function for dopamine D1-D4 receptor subtypes, serotonin 5-HT1A, 5-HT2A, 5-HT2C, 5-HT6, 5-HT7, norepinephrine α1, α2A, α2C, histamine H1 receptors, and muscarinic M1 receptors.

[4] = target: 5-HT7 receptor (Homo sapiens, UniProt P34969); details: background statement; cited from earlier work
5-HT7 receptor, sequence (P34969 whole entry): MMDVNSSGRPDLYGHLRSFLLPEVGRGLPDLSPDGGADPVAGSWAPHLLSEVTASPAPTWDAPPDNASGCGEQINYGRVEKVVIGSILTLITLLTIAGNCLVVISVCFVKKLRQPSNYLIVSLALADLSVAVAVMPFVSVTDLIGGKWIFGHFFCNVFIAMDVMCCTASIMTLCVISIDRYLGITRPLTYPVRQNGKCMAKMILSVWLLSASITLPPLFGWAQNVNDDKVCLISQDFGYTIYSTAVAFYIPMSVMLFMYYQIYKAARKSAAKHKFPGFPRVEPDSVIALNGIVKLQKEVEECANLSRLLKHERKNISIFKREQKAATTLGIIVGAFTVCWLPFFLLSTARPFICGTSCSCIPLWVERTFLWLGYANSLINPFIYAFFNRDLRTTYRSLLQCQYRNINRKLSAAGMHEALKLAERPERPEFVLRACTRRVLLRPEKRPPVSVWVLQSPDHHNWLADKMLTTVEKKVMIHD

[5] = system: patients with bipolar I depression; experiment: Lurasidone adjunctive to lithium or divalproex for bipolar I depression, 6-week study, efficacy; type: in vivo, human; details: lurasidone 20-120 mg/day adjunctive to lithium or divalproex, 6 weeks
Procedure: Changes from DB baseline (DB BL) in MADRS total score and secondary efficacy outcomes were analyzed using either mixed model for repeated measures (MMRM) or analysis of covariance, last observation carried forward (ANCOVA-LOCF), or logistic regression.
Therapeutic blood levels of Li or VPA had to be maintained for ≧28 days prior to randomization.
The total duration of treatment was 6 weeks.
A mixed model for repeated measures (MMRM) was utilized using the ITT population. The results are depicted in FIG. 16. The MMRM model included treatment, visit, pooled center, stratification variable (lithium or divalproex), baseline MADRS total score, and the treatment-by-visit interactions. An unstructured covariance matrix was used for the within-subject correlation. Missing observations were not imputed for this analysis.
Efficacy was also evaluated by measuring the change from baseline in CGI-BP-S score (depression) and the change from baseline in SDS total score. The results are depicted in FIGS. 17 and 18. CGI-BP-S was analyzed using the MMRM method described above, and SDS was analyzed using an analysis of covariance (ANCOVA) model with treatment, visit, pooled center, stratification variable (lithium or divalproex) and the baseline value of SDS. The ITT population was used for the analyses.

[6] = Metabolic effects, 1-year lurasidone therapy; type: in vivo, human; details: 40-120 mg/day, 1-year study, patients with schizophrenia
Procedure: Changes in weight, total cholesterol, triglycerides, fasting glucose, and prolactin were measured and compared to baseline levels.

[7] = target: T2, muscarinic M1 receptor (Homo sapiens, UniProt P11229); details: background statement; cited from earlier work
T2 sequence (P11229 1-460): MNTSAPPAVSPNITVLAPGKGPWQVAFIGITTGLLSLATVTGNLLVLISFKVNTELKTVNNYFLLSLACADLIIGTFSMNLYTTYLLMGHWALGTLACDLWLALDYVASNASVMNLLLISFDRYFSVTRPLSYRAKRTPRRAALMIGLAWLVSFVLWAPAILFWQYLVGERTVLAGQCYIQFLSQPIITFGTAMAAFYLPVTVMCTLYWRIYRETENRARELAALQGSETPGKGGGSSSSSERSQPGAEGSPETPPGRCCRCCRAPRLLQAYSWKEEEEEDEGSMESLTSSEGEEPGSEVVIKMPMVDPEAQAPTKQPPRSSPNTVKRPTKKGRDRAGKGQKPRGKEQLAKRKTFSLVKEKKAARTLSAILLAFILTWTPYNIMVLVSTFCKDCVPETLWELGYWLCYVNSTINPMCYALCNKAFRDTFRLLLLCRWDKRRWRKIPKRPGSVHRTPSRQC

[8] = Lurasidone monotherapy for bipolar I depression, 6-week study, safety and tolerability; type: in vivo, human
[9] = Short-term (6-week) and long-term (6-month, 12-month) metabolic safety study; type: in vivo, human
Procedure: The mean change in weight and BMI was assessed at the LOCF endpoint for the short-term study. […] FIG. 6 summarizes the mean change in weight and BMI in observed cases after 6 months and 12 months of treatment
The median change in total cholesterol and triglycerides, and glucose and HbA1c, was also assessed for both the short-term and long-term studies.

[10] = target: 5-HT2A receptor (Homo sapiens, UniProt P28223); details: background statement; cited from earlier work
5-HT2A receptor, sequence (P28223 whole entry): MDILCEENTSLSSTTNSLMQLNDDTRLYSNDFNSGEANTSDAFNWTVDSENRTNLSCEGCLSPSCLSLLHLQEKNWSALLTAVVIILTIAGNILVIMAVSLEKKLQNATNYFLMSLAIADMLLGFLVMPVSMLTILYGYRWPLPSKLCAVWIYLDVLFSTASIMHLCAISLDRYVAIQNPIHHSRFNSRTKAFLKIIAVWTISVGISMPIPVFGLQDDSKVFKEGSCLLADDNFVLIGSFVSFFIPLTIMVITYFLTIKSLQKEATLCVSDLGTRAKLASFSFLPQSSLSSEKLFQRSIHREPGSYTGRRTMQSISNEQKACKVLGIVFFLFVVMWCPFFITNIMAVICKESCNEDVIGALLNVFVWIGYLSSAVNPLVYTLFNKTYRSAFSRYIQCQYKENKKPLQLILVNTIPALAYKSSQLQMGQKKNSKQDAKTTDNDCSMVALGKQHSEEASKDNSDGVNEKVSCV

[11] = Lurasidone 20-60 mg, listed as LUR
[12] = Lurasidone 80-120 mg, listed as LUR

Question: What does the source list for `O=C1[C@@H]2[C@H]3CC[C@H](C3)[C@@H]2C(=O)N1C[C@@H]1CCCC[C@H]1CN1CCN(c2nsc3ccccc23)CC1` [Lurasidone]?
Answer: Sheehan Disability Scale (SDS) vs PBO ([1]; both LUR20-60 and LUR80-120 groups, LOCF): significant improvement over PBO; Responder rates (reduction in MADRS total score ≧50%) ([1]; lurasidone 20 to 60 mg/day): 53%; MADRS effect size vs PBO ([1]; lurasidone 20 to 60 mg/day): 0.51; MADRS score reduction (change from baseline, MMRM) ([1]; lurasidone 20 to 60 mg/day): −15.4; reduction in CGI-BP-S depression scores (MMRM) ([1]; lurasidone 20 to 60 mg/day): −1.8; Responder rates (reduction in MADRS total score ≧50%) ([1]; lurasidone 80 to 120 mg/day): 51%; MADRS effect size vs PBO ([1]; lurasidone 80 to 120 mg/day): 0.51; MADRS score reduction (change from baseline, MMRM) ([1]; lurasidone 80 to 120 mg/day): −15.4; reduction in CGI-BP-S depression scores (MMRM) ([1]; lurasidone 80 to 120 mg/day): −1.7; depressive symptoms compared to placebo ([1]; monotherapy, flexibly dosed at 20 to 60 mg/day or 80 to 120 mg/day): significantly reduced depressive symptoms; total PANSS and Brief Psychiatric Rating Scale (BPRS) scores [2]: gradual and sustained improvement; Ki [3]: 29.7 nM; reported affinity for 5-HT7 receptor [4]: high affinity; depressive symptoms compared to placebo [5]: significantly reduced depressive symptoms; self-rated measures of social, family, and occupational function as well as quality of life [5]: significantly improved; changes in mean weight, lipids, and prolactin from baseline [6]: no adverse changes; reported affinity for muscarinic M1 receptor [7]: minimal to no affinity; Adverse Events: Akathisia, incidence ([8]; Lurasidone 20-60 mg): 13 (7.9%); Adverse Events: Dizziness, incidence ([8]; Lurasidone 20-60 mg): 4 (2.4%); Adverse Events: Headache, incidence ([8]; Lurasidone 20-60 mg): 23 (14.0%); Adverse Events: Insomnia, incidence ([8]; Lurasidone 20-60 mg): 8 (4.9%); Adverse Events: Nausea, incidence ([8]; Lurasidone 20-60 mg): 17 (10.4%); Adverse Events: Sedation, incidence ([8]; Lurasidone 20-60 mg): 5 (3.0%); Adverse Events: Somnolence, incidence ([8]; Lurasidone 20-60 mg): 7 (4.3%); Cholesterol (mg/dL) median change (at LOCF endpoint) ([8]; Lurasidone 20-60 mg): 0.0 mg/dL; Glucose (mg/dL) median change (at LOCF endpoint) ([8]; Lurasidone 20-60 mg): -1.0 mg/dL; Triglycerides (mg/dL) median change (at LOCF endpoint) ([8]; Lurasidone 20-60 mg): +3.0 mg/dL; Weight (kg) mean change (at LOCF endpoint) ([8]; Lurasidone 20-60 mg): +0.56 kg; Adverse Events: Akathisia, incidence [8, 11]: 7.9%; Adverse Events: Headache, incidence [8, 11]: 14.0%; Adverse Events: Nausea, incidence [8, 11]: 10.4%; Adverse Events: Akathisia, incidence ([8]; Lurasidone 80-120 mg): 18 (10.8%); Adverse Events: Dizziness, incidence ([8]; Lurasidone 80-120 mg): 10 (6.0%); Adverse Events: Headache, incidence ([8]; Lurasidone 80-120 mg): 15 (9.0%); Adverse Events: Insomnia, incidence ([8]; Lurasidone 80-120 mg): 11 (6.6%); Adverse Events: Nausea, incidence ([8]; Lurasidone 80-120 mg): 17.4%; Adverse Events: Sedation, incidence ([8]; Lurasidone 80-120 mg): 12 (7.2%); Adverse Events: Somnolence, incidence ([8]; Lurasidone 80-120 mg): 11 (6.6%); Cholesterol (mg/dL) median change (at LOCF endpoint) ([8]; Lurasidone 80-120 mg): -3.0 mg/dL; Glucose (mg/dL) median change (at LOCF endpoint) ([8]; Lurasidone 80-120 mg): 0.0 mg/dL; Triglycerides (mg/dL) median change (at LOCF endpoint) ([8]; Lurasidone 80-120 mg): -2.0 mg/dL; Weight (kg) mean change (at LOCF endpoint) ([8]; Lurasidone 80-120 mg): +0.02 kg; Adverse Events: Akathisia, incidence [8, 12]: 10.8%; Adverse Events: Headache, incidence [8, 12]: 9.0%; Adverse Events: Nausea, incidence [8, 12]: 17.4%; discontinuation rates due to adverse events ([8]; lurasidone 20 to 60 mg/day): 7%; discontinuation rates due to adverse events ([8]; lurasidone 80 to 120 mg/day): 6%; changes in weight, lipids and measures of glycemic control ([8]; monotherapy, 20-60 and 80-120 mg/day, 6 weeks): Minimal changes; mean change in weight and BMI as compared to other treatments ([9]; short-term (6-week) study, LOCF endpoint, patients with schizophrenia): minimal increases; disturbances in lipids or glycemic control ([9]; short-term and long-term (6 and 12 months) studies): not associated with disturbances in lipids or glycemic control; reported affinity for 5-HT2A receptor [10]: high affinity
